# Assays:
# HUVEC = assay: MTT assay, viability of normal cells; format: cell-based, Human; details: 72 hours, FIG. 1B
# Method: Cell viability was assessed the MTT assay. […] Data are expressed as means±S.D. (***P<0.001 compares to control group).
# Cells were cultured in RPMI-1640 (RT-112, KMS-11, SNU-16, HT-29, HCT-116, NCI—H520, Hep3B, PLC/PRF/5, HL-60, MOLT-4) and DMEM (HepG2, MCF-7, MDA-MB-231) with 10% FBS (v/v) and Penicillin/Streptomycin (100 U/ml). FU-DDLS-1 cell line was maintained in DMEM:F12 medium with 10% FBS. LiSa-2 cell line was maintained in IMDM/RPMI-1640 in a 4:1 ratio supplemented with 10% FBS, 2 mmol/L L-glutamine, and 0.1 mg/mL gentamicin. Human umbilical vein endothelial cells (HUVECs) were grown to confluence on 1% collagen, and maintained in 90% Medium 199 with 25 U/ml heparin, 30 μg/ml endothelial cell growth supplement (ECGS) adjusted to contain 1.5 g/L sodium bicarbonate, 10% FBS and Penicillin/Streptomycin (100 U/ml) Cultures were maintained at 37° C. in a humidified atmosphere of 5% CO2/95% air.
# Cells were seeded in 96-well plates (5,000 cells/well) and incubated overnight for attachment, and were then treated with indicated agents in 10% FBS-supplemented medium for 72 hours. […] After removal of medium, the cells were lysed with 100 μL per well dimethyl sulfoxide (DMSO), and absorbance at 550 nm was measured with microplate reader. The relative cell viability (%) was expressed as a percentage relative to a DMSO control cells.
# RT-112 cells = assay: Cell cycle distribution by flow cytometry; format: cell-based; details: 48 h to 72 h, FIG. 3A
smiles,measurement,setting,value
"CCN1CCN(c2ccc(Nc3ncnc(N(C)C(=O)Nc4c(Cl)c(OC)c(Cl)c(OC)c4Cl)n3)cc2)CC1 [MPT0L145, 1-(4-((4-(4-ethylpiperazin-1-yl)phenyl)amino)-1,3,5-triazin-2-yl)-1-methyl-3-(2,4,6-trichloro-3,5-dimethoxyphenyl)urea]",toxicity in normal cells (HUVEC) compared with BGJ-398,HUVEC,significantly lower toxicity
same,accumulation of the sub-G1 phase (apoptotic cell death),RT-112 cells,did not promote accumulation of the sub-G1 phase

# From patent publication US10624897B2, “Chlorobenzene substituted azaaryl compounds” (TAIPEI MEDICAL UNIVERSITY, priority 2015, dated 2020)
